Test results as given in patent US11912693B2, “Compounds for modulating S1P1 activity and methods of using the same” (TREVENA, INC., priority 2017, dated 2024).

Legend:
[1] = biological target: T1, human sphingosine-1-phosphate receptor 1 (S1P1) (Homo sapiens (Human), UniProt P21453); experiment: Inhibition of cAMP production (HTRF cAMP HiRange), S1P1 CHO-K1 cells; format: cell-based; details: for Emax: CHO-K1, efficacy (SPAN) normalized to fingolimod, read-out: hS1P1 cAMP SPAN; for hS1P1 cAMP pEC50: inhibition of cAMP production, S1P1 CHO-K1 cells
In short: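 CHO-K1 cells stably co-expressing human S1P1 (C-terminal Prolink tag) and EA-β-arrestin2 were grown in AssayComplete Media 6 at 37° C. and 5% CO2, plated, and incubated overnight. Agonist-driven inhibition of intracellular cAMP was read by TR-FRET with the HTRF cAMP HiRange kit on a PheraStar reader. Potency is pEC50, and efficacy (SPAN) is normalized to fingolimod.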
Target sequence in this assay (P21453 whole entry, looked up): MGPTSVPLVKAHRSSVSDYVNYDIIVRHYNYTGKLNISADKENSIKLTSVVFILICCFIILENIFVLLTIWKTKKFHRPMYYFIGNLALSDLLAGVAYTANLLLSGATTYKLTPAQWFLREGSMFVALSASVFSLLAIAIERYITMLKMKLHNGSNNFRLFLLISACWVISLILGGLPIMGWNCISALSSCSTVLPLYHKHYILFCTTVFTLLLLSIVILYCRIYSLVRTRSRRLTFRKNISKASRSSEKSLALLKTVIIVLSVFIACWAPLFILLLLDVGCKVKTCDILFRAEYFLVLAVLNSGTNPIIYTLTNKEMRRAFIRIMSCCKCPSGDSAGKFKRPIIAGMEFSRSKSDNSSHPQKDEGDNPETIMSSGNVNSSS

[2] = biological target: T1, human sphingosine-1-phosphate receptor 1 (S1P1); experiment: β-Arrestin2 recruitment assay (PathHunter), S1P1 CHO-K1 cells; format: cell-based; details: for Emax: CHO-K1, efficacy (SPAN) normalized to fingolimod, read-out: hS1P1 B-arrestin2 SPAN; for hS1P1 B-arrestin2 pEC50: β-arrestin2 recruitment, S1P1 CHO-K1 cells
In short: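 Enzyme-fragment complementation read-out: agonist-driven β-arrestin2 binding to ProLink-tagged human S1P1 in stable CHO-K1 cells restores β-galactosidase, measured 1 h at room temperature after a 60 min 37° C. compound incubation. Potency as pEC50, efficacy relative to fingolimod (SPAN).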
Target sequence in this assay (P21453 whole entry, looked up): as above
Target sequence in this assay (P32121 whole entry partner, looked up): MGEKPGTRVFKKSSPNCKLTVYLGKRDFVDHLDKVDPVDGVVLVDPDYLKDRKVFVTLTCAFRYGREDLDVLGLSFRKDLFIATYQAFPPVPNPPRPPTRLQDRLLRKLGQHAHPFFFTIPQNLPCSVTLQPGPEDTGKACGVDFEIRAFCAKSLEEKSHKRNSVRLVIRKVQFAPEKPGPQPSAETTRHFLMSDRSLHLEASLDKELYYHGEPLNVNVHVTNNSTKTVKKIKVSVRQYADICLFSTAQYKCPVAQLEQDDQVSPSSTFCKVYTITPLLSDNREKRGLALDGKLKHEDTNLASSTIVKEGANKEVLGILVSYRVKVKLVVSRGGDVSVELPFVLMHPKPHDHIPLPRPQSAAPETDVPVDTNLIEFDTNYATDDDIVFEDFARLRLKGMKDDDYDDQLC

c1ccc(Oc2ccc(-c3noc(-c4ccc5c(c4)nnn5C4CC4)n3)cc2)cc1 [Compound 285, 1-cyclopropyl-5-[3-(4-phenoxyphenyl)-1,2,4-oxadiazol-5-yl]-1H-1,2,3-benzotriazole]
Emax [1]: < 75%
hS1P1 cAMP pEC50 [1]: <6.5
Emax [2]: < 75%
hS1P1 B-arrestin2 pEC50 [2]: <5

COc1ccccc1-c1noc(-c2ccc3c(c2)nnn3C(C)C)n1 [Compound 286, 5-(1-isopropyl-1H-benzo[d][1,2,3]triazol-5-yl)-3-(2-methoxyphenyl)-1,2,4-oxadiazole]
Emax [1]: > 75%
hS1P1 cAMP pEC50 [1]: >6.5
Emax [2]: > 75%
hS1P1 B-arrestin2 pEC50 [2]: >5

Cc1ccccc1-c1noc(-c2ccc3c(c2)nnn3CC2CC2)n1 [Compound 288, 1-(cyclopropylmethyl)-5-[3-(2-methylphenyl)-1,2,4-oxadiazol-5-yl]-1H-1,2,3-benzotriazole]
Emax [1]: < 75%
hS1P1 cAMP pEC50 [1]: <6.5
Emax [2]: < 75%
hS1P1 B-arrestin2 pEC50 [2]: <5

CC(C)Cn1nnc2cc(-c3nc(-c4ccccc4Cl)no3)ccc21 [Compound 289, 5-[3-(2-chlorophenyl)-1,2,4-oxadiazol-5-yl]-1-(2-methylpropyl)-1H-1,2,3-benzotriazole]
hS1P1 cAMP pEC50 [1]: <6.5
hS1P1 B-arrestin2 pEC50 [2]: <5

CC(C)n1nnc2cc(-c3noc(-c4ccc(C5CCCCC5)cc4)n3)ccc21 [Compound 290, 5-(4-cyclohexylphenyl)-3-(1-isopropyl-1H-benzo[d][1,2,3]triazol-5-yl)-1,2,4-oxadiazole]
Emax [1]: < 75%
hS1P1 cAMP pEC50 [1]: <6.5
Emax [2]: < 75%
hS1P1 B-arrestin2 pEC50 [2]: <5

CC1(C)CC(=O)c2cc(-c3nc(-c4ccncc4)no3)ccc2O1 [Compound 291, 2,2-dimethyl-6-[3-(pyridin-4-yl)-1,2,4-oxadiazol-5-yl]-3,4-dihydro-2H-1-benzopyran-4-one]
Emax [1]: < 75%
hS1P1 cAMP pEC50 [1]: <6.5
Emax [2]: < 75%
hS1P1 B-arrestin2 pEC50 [2]: <5

c1ccc(-c2noc(-c3ccc4c(c3)nnn4C3CCCCC3)n2)cc1 [Compound 292, 1-cyclohexyl-5-(3-phenyl-1,2,4-oxadiazol-5-yl)-1H-1,2,3-benzotriazole]
Emax [1]: < 75%
hS1P1 cAMP pEC50 [1]: <6.5
Emax [2]: < 75%
hS1P1 B-arrestin2 pEC50 [2]: <5

CC(C)n1nnc2cc(-c3nc(-c4ccccc4)co3)ccc21 [Compound 294, 5-(4-phenyl-1,3-oxazol-2-yl)-1-(propan-2-yl)-1H-1,2,3-benzotriazole]
Emax [1]: < 75%
hS1P1 cAMP pEC50 [1]: <6.5
Emax [2]: > 75%
hS1P1 B-arrestin2 pEC50 [2]: <5

c1cc(-c2noc(-c3ccc4c(c3)nnn4C3CC3)n2)ccn1 [Compound 295, 1-cyclopropyl-5-[3-(pyridin-4-yl)-1,2,4-oxadiazol-5-yl]-1H-1,2,3-benzotriazole]
Emax [1]: > 75%
hS1P1 cAMP pEC50 [1]: <6.5
Emax [2]: < 75%
hS1P1 B-arrestin2 pEC50 [2]: <5

CC(C)n1nnc2cc(-c3nc(-c4ccc(OCc5ccccc5)c(C(F)(F)F)c4)no3)ccc21 [Compound 296, 5-{3-[4-(benzyloxy)-3-(trifluoromethyl)phenyl]-1,2,4-oxadiazol-5-yl}-1-(propan-2-yl)-1H-1,2,3-benzotriazole]
Emax [1]: < 75%
hS1P1 cAMP pEC50 [1]: <6.5
Emax [2]: < 75%
hS1P1 B-arrestin2 pEC50 [2]: <5

CC(C)n1nnc2cc(-c3nc4c(o3)-c3ccccc3CC4)ccc21 [Compound 297, 5-{4H,5H-naphtho[2,1-d][1,3]oxazol-2-yl}-1-(propan-2-yl)-1H-1,2,3-benzotriazole]
Emax [1]: > 75%
hS1P1 cAMP pEC50 [1]: <6.5
Emax [2]: > 75%
hS1P1 B-arrestin2 pEC50 [2]: <5

O=C1CC2(CCCC2)Oc2ccc(-c3nc(-c4cccnc4)no3)cc21 [Compound 298, 6-[3-(pyridin-3-yl)-1,2,4-oxadiazol-5-yl]-3,4-dihydrospiro[1-benzopyran-2,1′-cyclopentane]-4-one]
hS1P1 cAMP pEC50 [1]: <6.5
hS1P1 B-arrestin2 pEC50 [2]: >5

COc1cccc(-c2nc(-c3ccc4c(c3)nnn4C(C)C)no2)c1 [Compound 299, 3-(1-isopropylbenzotriazol-5-yl)-5-(3-methoxyphenyl)-1,2,4-oxadiazole]
Emax [1]: < 75%
hS1P1 cAMP pEC50 [1]: <6.5
Emax [2]: > 75%
hS1P1 B-arrestin2 pEC50 [2]: <5

CCC1(CC)CC(=O)c2cc(-c3nnc(-c4ccccc4OC)o3)ccc2O1 [Compound 300, 2,2-diethyl-6-(5-(2-methoxyphenyl)-1,3,4-oxadiazol-2-yl)chroman-4-one]
hS1P1 cAMP pEC50 [1]: <6.5
hS1P1 B-arrestin2 pEC50 [2]: <5

CCC1(CC)CC(=O)c2cc(-c3nc(-c4ccc(OC)nc4)no3)ccc2O1 [Compound 301, 2,2-diethyl-6-[3-(6-methoxy-3-pyridyl)-1,2,4-oxadiazol-5-yl]chroman-4-one]
Emax [1]: < 75%
hS1P1 cAMP pEC50 [1]: <6.5
Emax [2]: < 75%
hS1P1 B-arrestin2 pEC50 [2]: <5

N#Cc1cc(-c2nc(-c3ccc4c(c3)CCC(=O)N4)no2)ccc1NCC1CC1 [Compound 302, 2-((cyclopropylmethyl)amino)-5-(3-(2-oxo-1,2,3,4-tetrahydroquinolin-6-yl)-1,2,4-oxadiazol-5-yl)benzonitrile]
Emax [1]: > 75%
hS1P1 cAMP pEC50 [1]: >6.5
Emax [2]: > 75%
hS1P1 B-arrestin2 pEC50 [2]: >5

CCC1(CC)CC(=O)c2cc(-c3nc(-c4cnccc4OC)no3)ccc2O1 [Compound 303, 2,2-diethyl-6-(3-(4-methoxypyridin-3-yl)-1,2,4-oxadiazol-5-yl)chroman-4-one]
Emax [1]: > 75%
hS1P1 cAMP pEC50 [1]: <6.5
Emax [2]: > 75%
hS1P1 B-arrestin2 pEC50 [2]: <5

CC(C)n1nnc2cc(-c3noc(-c4ccccc4F)n3)ccc21 [Compound 307, 5-(2-fluorophenyl)-3-(1-isopropyl-1H-benzo[d][1,2,3]triazol-5-yl)-1,2,4-oxadiazole]
Emax [1]: > 75%
hS1P1 cAMP pEC50 [1]: >6.5
Emax [2]: > 75%
hS1P1 B-arrestin2 pEC50 [2]: >5

Cc1ccccc1-c1noc(-c2ccc3nnn(C(C)C)c3c2)n1 [Compound 308, 6-[3-(2-methylphenyl)-1,2,4-oxadiazol-5-yl]-1-(propan-2-yl)-1H-1,2,3-benzotriazole]
Emax [1]: < 75%
hS1P1 cAMP pEC50 [1]: <6.5
Emax [2]: < 75%
hS1P1 B-arrestin2 pEC50 [2]: <5

CCC1(CC)CC(=O)c2cc(-c3nc(-c4cccnc4)ns3)ccc2O1 [Compound 309, 2,2-diethyl-6-(3-(pyridin-3-yl)-1,2,4-thiadiazol-5-yl)chroman-4-one]
Emax [1]: > 75%
hS1P1 cAMP pEC50 [1]: <6.5
Emax [2]: > 75%
hS1P1 B-arrestin2 pEC50 [2]: <5

CCC1(CC)CC(=O)c2cc(-c3nc(-c4cncc(O)c4)no3)ccc2O1 [Compound 310, 2,2-diethyl-6-[3-(5-hydroxy-3-pyridyl)-1,2,4-oxadiazol-5-yl]chroman-4-one]
Emax [1]: > 75%
hS1P1 cAMP pEC50 [1]: >6.5
Emax [2]: > 75%
hS1P1 B-arrestin2 pEC50 [2]: >5

CCC1(CC)CC(=O)c2cc(-c3nc(-c4cncc(OC)c4)no3)ccc2O1 [Compound 311, 2,2-diethyl-6-(3-(5-methoxypyridin-3-yl)-1,2,4-oxadiazol-5-yl)chroman-4-one]
hS1P1 cAMP pEC50 [1]: <6.5
hS1P1 B-arrestin2 pEC50 [2]: <5

CCC1(CC)CC(=O)c2cc(-c3nc(-c4ccncc4O)no3)ccc2O1 [Compound 312, 2,2-diethyl-6-(3-(3-hydroxypyridin-4-yl)-1,2,4-oxadiazol-5-yl)chroman-4-one]
Emax [1]: > 75%
hS1P1 cAMP pEC50 [1]: <6.5
Emax [2]: > 75%
hS1P1 B-arrestin2 pEC50 [2]: <5

CCC1(CC)CC(=O)c2cc(-c3nc(-c4ccncc4C(F)(F)F)no3)ccc2O1 [Compound 313, 2,2-diethyl-6-(3-(3-(trifluoromethyl)pyridin-4-yl)-1,2,4-oxadiazol-5-yl)chroman-4-one]
Emax [1]: > 75%
hS1P1 cAMP pEC50 [1]: >6.5
Emax [2]: > 75%
hS1P1 B-arrestin2 pEC50 [2]: <5

CCC1(CC)CC(=O)c2cc(-c3nc(-c4ccnc(C(F)(F)F)c4)no3)ccc2O1 [Compound 314, 2,2-diethyl-6-(3-(2-(trifluoromethyl)pyridin-4-yl)-1,2,4-oxadiazol-5-yl)chroman-4-one]
Emax [1]: < 75%
hS1P1 cAMP pEC50 [1]: <6.5
Emax [2]: < 75%
hS1P1 B-arrestin2 pEC50 [2]: <5

CCC1(CC)CC(=O)c2cc(-c3nc(-c4ccnc(C)c4)no3)ccc2O1 [Compound 315, 2,2-diethyl-6-(3-(2-methylpyridin-4-yl)-1,2,4-oxadiazol-5-yl)chroman-4-one]
Emax [1]: > 75%
hS1P1 cAMP pEC50 [1]: >6.5
Emax [2]: < 75%
hS1P1 B-arrestin2 pEC50 [2]: >5

CC(=O)Nc1ccc(-c2noc(-c3ccc(NC(C)C)c(C#N)c3)n2)cc1 [Compound 316, N-(4-(5-(3-cyano-4-(isopropylamino)phenyl)-1,2,4-oxadiazol-3-yl)phenyl)acetamide]
Emax [1]: > 75%
hS1P1 cAMP pEC50 [1]: >6.5
Emax [2]: < 75%
hS1P1 B-arrestin2 pEC50 [2]: <5

CC(C)n1ccc2cc(-c3nc(-c4ccccc4Cl)no3)ccc21 [Compound 320, 3-(2-chlorophenyl)-5-(1-isopropyl-1H-indol-5-yl)-1,2,4-oxadiazole]
Emax [1]: > 75%
hS1P1 cAMP pEC50 [1]: >6.5
Emax [2]: > 75%
hS1P1 B-arrestin2 pEC50 [2]: >5

CC(C)n1ccc2cc(-c3nc(-c4ccccc4OC(F)(F)F)no3)ccc21 [Compound 321, 5-(1-isopropyl-1H-indol-5-yl)-3-(2-(trifluoromethoxy)phenyl)-1,2,4-oxadiazole]
Emax [1]: > 75%
hS1P1 cAMP pEC50 [1]: <6.5
Emax [2]: < 75%
hS1P1 B-arrestin2 pEC50 [2]: >5
